Experimental data published in patent US8563741B2, “CDK inhibitors containing a zinc binding moiety” (Curis, Inc., priority 2007, dated 2013).
pIC50: −log10 of the molar value.

How the values were obtained:
CDK7/cyclinH1/MNAT1 = CDK7/cyclinH1/MNAT1 (Homo sapiens, UniProt P50613); experiment: CDK activity assay with p33 ATP, CDK7/cyclinH1/MNAT1
CDK3/cyclinE = molecular target: T1, CDK3/cyclinE (Homo sapiens, UniProt Q00526); experiment: CDK activity assay with p33 ATP, CDK3/cyclinE; format: biochemical; conditions: 1 μM ATP
T1 construct: C-terminal 6His-tagged recombinant human full-length cdk3 (MW=36 kDa); 6His (C); made in house; host or cells: Sf21 insect cells (baculovirus)
T1 sequence (Q00526 whole entry): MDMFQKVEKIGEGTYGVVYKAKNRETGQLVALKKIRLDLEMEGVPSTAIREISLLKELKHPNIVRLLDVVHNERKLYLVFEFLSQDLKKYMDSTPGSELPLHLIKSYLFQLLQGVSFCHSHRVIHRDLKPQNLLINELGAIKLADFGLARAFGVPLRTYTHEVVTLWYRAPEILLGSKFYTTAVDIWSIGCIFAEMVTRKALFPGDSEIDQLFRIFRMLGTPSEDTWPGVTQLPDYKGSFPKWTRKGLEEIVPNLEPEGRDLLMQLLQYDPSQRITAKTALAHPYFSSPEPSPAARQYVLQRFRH
T1 sequence (P24864 whole entry partner): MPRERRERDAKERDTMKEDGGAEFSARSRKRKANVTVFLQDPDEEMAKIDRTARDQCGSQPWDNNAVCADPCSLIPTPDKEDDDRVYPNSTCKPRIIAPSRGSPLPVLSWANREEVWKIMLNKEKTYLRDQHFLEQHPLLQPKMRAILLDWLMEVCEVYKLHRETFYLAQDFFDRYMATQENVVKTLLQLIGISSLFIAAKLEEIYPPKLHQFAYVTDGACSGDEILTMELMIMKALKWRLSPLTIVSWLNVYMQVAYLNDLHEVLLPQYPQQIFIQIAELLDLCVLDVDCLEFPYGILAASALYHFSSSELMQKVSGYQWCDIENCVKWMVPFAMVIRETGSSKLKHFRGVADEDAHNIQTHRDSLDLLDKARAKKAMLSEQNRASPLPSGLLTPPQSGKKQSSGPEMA
Procedure: CDK3/cyclinE (Accession Number for CDK3; GenBank X66357, for Cyclin E; GenBank NM_001238):
C-terminal 6His-tagged recombinant human full-length cdk3 (MW=36 kDa) were coexpressed with N-terminal GST-tagged recombinant human full-length cyclin E (MW=74 kDa) with baculovirus system in Sf21 insect cells. Recombinant protein complex was purified using Ni2+/NTA agarose and with purity to be 66% by SDS PAGE and Coomassie blue staining. Specific Activity of recombinant enzyme was measured to be 861 U/mg, where one unit of cdk3/cyclinE activity is defined as 1 nmol phosphate incorporated into 0.1 mg/ml histone H1 per minute at 30° C. with a final ATP concentration of […]. Enzyme was stored at a concentration of 0.1 mg/ml in 50 mM Tris/HCl pH7.5, 150 mM NaCl 0.1 mM EGTA, 0.03% Brij 35, 270 mM sucrose, 1 mM benzamidine, 0.2 mM PMSF, 0.1% 2-mercaptoethanol.

[1] = tested on: A375 Melanoma xenograft tumors; experiment: Anti-tumor activity in the A375 Melanoma nude mouse xenograft model; format: in vivo; conditions: 60 mg/Kg ip daily in 30% CAPTISOL
Procedure: FIG. 1 is a graph of tumor size versus time for mice bearing A375 Melanoma xenograft tumors receiving either 60 mg/Kg compound 8 in 30% CAPTISOL iv daily or vehicle only.
(c) An In Vivo Study of the Anti-Tumor Activity of Compound 8 in 30% CAPTISOL in the A375 Melanoma Nude Mouse Xenograft Model
Mice were divided into two groups of 5 to 6 mice each. Tumor volumes at the commencement of treatment were 560±230 mm^3. Compound 8 in 30% CAPTISOL was administered daily (60 mg/Kg ip) to one group of animals, while the second group of animals received an equal volume of vehicle.

[2] = tested on: HL60 AML xenograft tumors; experiment: Anti-tumor activity in the HM60 AML nude mouse xenograft model; format: in vivo; conditions: for tumor growth (in words): compound 8 30 mg/Kg, compound 9 60 mg/Kg daily in 30% CAPTISOL
Procedure: FIG. 2 is a graph of tumor size versus time for mice bearing HL60 AML xenograft tumors receiving 30 mg/Kg compound 8 in 30% CAPTISOL iv daily, 60 mg/Kg compound 9 in 30% CAPTISOL iv daily or vehicle only.
(d) An In Vivo Study of the Anti-Tumor Activity of Compounds 8 and 9 in 30% CAPTISOL in the HM60 AML Nude Mouse Xenograft Model
Mice were divided into three groups of 4 mice each. Tumor volumes at the commencement of treatment were 157±56 mm^3. One group of mice received 30 mg/Kg compound 8 daily in 30% CAPTISOL, while a second group received 60 mg/Kg compound 9 in 30% CAPTISOL daily. The third group received an equivalent volume of vehicle daily.

CDK9/cyclinT1 = molecular target: T2, CDK9/cyclinT1 (Homo sapiens, UniProt P50750); experiment: CDK activity assay with p33 ATP, CDK9/cyclinT1; format: biochemical; conditions: 1 μM ATP
T2 construct: C-terminal 6His-tagged, full-length recombinant, human cdk9 (MW=44 kDa); 6His (C); made in house; host or cells: Sf21 insect cells (baculovirus)
T2 sequence (P50750 whole entry): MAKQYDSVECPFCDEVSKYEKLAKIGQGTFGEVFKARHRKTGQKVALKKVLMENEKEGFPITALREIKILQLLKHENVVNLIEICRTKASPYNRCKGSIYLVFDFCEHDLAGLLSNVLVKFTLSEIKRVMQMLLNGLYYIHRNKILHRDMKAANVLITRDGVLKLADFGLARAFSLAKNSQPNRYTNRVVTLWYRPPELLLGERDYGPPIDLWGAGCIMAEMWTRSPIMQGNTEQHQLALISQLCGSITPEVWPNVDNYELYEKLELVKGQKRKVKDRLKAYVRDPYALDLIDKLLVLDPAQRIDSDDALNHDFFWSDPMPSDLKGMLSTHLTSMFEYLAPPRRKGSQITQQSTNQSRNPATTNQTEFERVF
T2 sequence (O60563 whole entry partner): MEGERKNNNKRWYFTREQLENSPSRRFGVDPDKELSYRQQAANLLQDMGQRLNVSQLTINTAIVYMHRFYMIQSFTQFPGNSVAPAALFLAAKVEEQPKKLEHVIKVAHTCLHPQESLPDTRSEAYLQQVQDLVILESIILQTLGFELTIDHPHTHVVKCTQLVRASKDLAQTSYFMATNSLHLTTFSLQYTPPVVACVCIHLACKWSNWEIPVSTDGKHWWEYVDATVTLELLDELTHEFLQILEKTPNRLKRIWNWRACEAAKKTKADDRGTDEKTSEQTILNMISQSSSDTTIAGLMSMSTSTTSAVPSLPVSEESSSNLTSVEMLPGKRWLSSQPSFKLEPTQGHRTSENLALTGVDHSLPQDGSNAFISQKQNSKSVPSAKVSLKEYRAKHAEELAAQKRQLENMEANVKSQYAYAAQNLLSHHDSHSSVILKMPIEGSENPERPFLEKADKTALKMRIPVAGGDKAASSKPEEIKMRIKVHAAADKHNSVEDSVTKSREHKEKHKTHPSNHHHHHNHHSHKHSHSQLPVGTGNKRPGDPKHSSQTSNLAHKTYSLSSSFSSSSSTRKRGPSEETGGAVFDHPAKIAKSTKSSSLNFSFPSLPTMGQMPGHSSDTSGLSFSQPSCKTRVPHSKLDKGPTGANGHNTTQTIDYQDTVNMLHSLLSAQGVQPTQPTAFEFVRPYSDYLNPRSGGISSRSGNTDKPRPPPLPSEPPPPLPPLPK
Procedure: CDK9/cyclinT1 (Accession Number for CDK9; GenBank AF517840, for Cyclin T1; GenBank NM_001240)
C-terminal 6His-tagged, full-length recombinant, human cdk9 (MW=44 kDa) were co-expressed with untagged, full-length human cyclin T1 (MW=80.79 kDa) with baculovirus system in Sf21 insect cells. Recombinant protein complex was purified with Ni^2+/NTA agarose. Purity of recombinant protein was measured to be 50% by SDS-PAGE and Coomassie blue staining Specific Activity of purified enzyme was measured to be186 U/mg, where one unit of cdk9/cyclin T1 activity is defined as 1 nmol phosphate incorporated into 100 μM PDKtide ([…]) (SEQ ID NO. 3), per minute at 30° C. with a final ATP concentration of 100 μM. Enzyme was stored at a concentration of 0.1 mg/ml in 50 mM Tris-HCl, pH 7.5, 300 mM NaCl, 0.1 mM EGTA, 0.03% Brij-35, 270 mM sucrose, 1 mM benzamidine, 0.1% 2-mercaptoethanol, 0.2 mM PMSF.
PDKtide (Substrate for CDK9):
Synthetic peptide substrate with sequence of [[…]] (SEQ ID NO. 3), MW=4771.4.

[3] = tested on: OPM2 Multiple Myeloma xenograft tumors; experiment: Anti-tumor activity in the OPM2 Multiple Myeloma nude mouse xenograft model; format: in vivo; conditions: 60 mg/Kg iv daily in 30% CAPTISOL
Procedure: FIG. 3 is a graph of tumor size versus time for mice bearing OPM2 Multiple Myeloma xenograft tumors receiving either 60 mg/Kg compound 9 in 30% CAPTISOL iv daily or vehicle only.
(e) An In Vivo Study of the Anti-Tumor Activity of Compound 9 in 30% CAPTISOL in the OPM2 Multiple Myeloma Nude Mouse Xenograft Model
Mice were divided into two groups of 7 mice each. Treatment began when the tumor sizes were 276±46 mm^3. Compound 9 in 30% CAPTISOL was administered to the animals daily at 60 mg/Kg iv.

CDK7/cyclinH1/MNAT1, sequence (P50613 whole entry): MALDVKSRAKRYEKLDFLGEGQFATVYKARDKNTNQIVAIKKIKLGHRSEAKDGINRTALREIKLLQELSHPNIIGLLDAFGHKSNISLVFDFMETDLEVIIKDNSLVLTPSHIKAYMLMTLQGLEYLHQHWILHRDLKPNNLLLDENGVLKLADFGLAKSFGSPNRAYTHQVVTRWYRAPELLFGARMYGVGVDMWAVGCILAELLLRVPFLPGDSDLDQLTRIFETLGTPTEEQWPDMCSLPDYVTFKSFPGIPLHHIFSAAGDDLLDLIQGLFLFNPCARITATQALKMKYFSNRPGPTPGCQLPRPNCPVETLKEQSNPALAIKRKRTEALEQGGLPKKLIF
CDK7/cyclinH1/MNAT1, sequence (P51946 whole entry partner): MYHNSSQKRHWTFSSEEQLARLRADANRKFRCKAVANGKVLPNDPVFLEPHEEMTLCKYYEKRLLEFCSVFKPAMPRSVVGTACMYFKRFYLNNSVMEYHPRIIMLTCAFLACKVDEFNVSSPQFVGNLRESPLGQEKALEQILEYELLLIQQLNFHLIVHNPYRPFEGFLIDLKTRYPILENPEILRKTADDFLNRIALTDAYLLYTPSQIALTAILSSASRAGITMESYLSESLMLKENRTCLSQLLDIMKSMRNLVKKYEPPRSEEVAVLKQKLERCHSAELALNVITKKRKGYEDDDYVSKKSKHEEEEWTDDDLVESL
CDK7/cyclinH1/MNAT1, sequence (P51948 whole entry partner): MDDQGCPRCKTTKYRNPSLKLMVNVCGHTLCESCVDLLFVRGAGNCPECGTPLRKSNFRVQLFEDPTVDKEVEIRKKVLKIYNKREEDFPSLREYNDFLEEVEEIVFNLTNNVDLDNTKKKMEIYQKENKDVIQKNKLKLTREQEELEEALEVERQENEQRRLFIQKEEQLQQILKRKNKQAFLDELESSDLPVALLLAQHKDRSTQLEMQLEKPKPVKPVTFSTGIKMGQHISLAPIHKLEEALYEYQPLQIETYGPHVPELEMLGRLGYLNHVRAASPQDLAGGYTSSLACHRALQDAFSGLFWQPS

pIC50 (CDK7/cyclinH1/MNAT1)	pIC50 (CDK3/cyclinE)	pIC50 (CDK9/cyclinT1)	melting point [°C]	Compound	tumor growth (in words) [1]	increase in tumor size ([1]; after 10 days, vehicle about 130% increase) [%]	increase in tumor size ([2]; 30 mg/Kg daily in 30% CAPTISOL, after 10 days, vehicle about 230% change) [%]	tumor growth (in words) [2]	decrease in tumor size ([2]; 60 mg/Kg daily in 30% CAPTISOL, after 10 days, vehicle about 230% change)	tumor growth (in words) [3]	increase in tumor size ([3]; after 10 days, vehicle about 450% increase) [%]
6.00 to 7.00	> 7.00	> 7.00		CC(C)(C)c1cnc(CSc2cnc(NC(=O)CCCCCCC(=O)NO)s2)o1 [Compound 8, N^1-(5-((5-tert-butyloxazol-2-yl)methylthio)thiazol-2-yl)-N^8-hydroxyoctanediamide]	able to attenuate tumor growth	50	~90	able to attenuate tumor growth			
6.00 to 7.00	> 7.00	> 7.00		CC(C)(C)c1cnc(CSc2cnc(NC(=O)Cc3ccc(OCCCC(=O)NO)cc3)s2)o1 [Compound 9, 4-(4-(2-(5-((5-tert-butyloxazol-2-yl)methylthio)thiazol-2-ylamino)-2-oxoethyl)phenoxy)-N-hydroxybutanamide]				able to attenuate tumor growth	about 50%	able to attenuate tumor growth	~50
5.00 to 6.00	> 7.00	> 7.00	181 to 183	CC(C)(C)c1cnc(CSc2cnc(NC(=O)C3CCN(c4ncc(C(=O)NO)cn4)CC3)s2)o1 [Compound 20, 2-(4-(5-((5-tert-butyloxazol-2-yl)methylthio)thiazol-2-ylcarbamoyl)piperidin-1-yl)-N-hydroxypyrimidine-5-carboxamide]							
